Consider 44 substances from patent US11840686B2, “Modulation of prekallikrein (PKK) expression” (Ionis Pharmaceuticals, Inc., priority 2013, dated 2023).

Strand notation (5' to 3'): a small letter for the sugar, then the base; units joined by * are phosphorothioate-linked, units joined directly phosphodiester-linked; [ ] holds rarer units or linkages, { } end groups; capitals alone tell only the bases. e = 2'-O-(2-methoxyethyl) (MOE); k = constrained ethyl (cEt); [5mC] = 5-methylcytosine; d = 2'-deoxy (DNA)

As a reminder, the % inhibition is the relative decrease from the control value, in per cent. Higher therefore signals strong suppression.

This data set has as its system human PKK mRNA. Description: Antisense inhibition of human PKK mRNA in HepaRG cells, 1,000 nM, MOE/deoxy/cEt oligonucleotides (Example 3). Type of data set: cell-based. In outline: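 Readout is percent PKK mRNA reduction against untreated controls, by real-time PCR (RTS3454) adjusted for total RNA via RIBOGREEN. Oligonucleotides, phosphorothioate gapmers of 16 nucleosides with cEt, MOE and deoxy sugars, were delivered at 1,000 nM by electroporation to 20,000 HepaRG cells/well for roughly 24 h.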

[1] abbreviates: HepaRG cells, electroporation with 1,000 nM antisense oligonucleotide, approx. 24 hours, PKK mRNA by RT-PCR (RTS3454), relative to untreated control cells, Table 25 experiment.
[2] abbreviates: HepaRG cells, electroporation with 1,000 nM antisense oligonucleotide, approximately 24 hours, primer probe set RTS3454, relative to untreated control cells, experiment of Table 23.
[3] abbreviates: Table 21 experiment, HepaRG cells, electroporation with 1,000 nM antisense oligonucleotide, approx. 24 hours, PKK mRNA by RT-PCR (RTS3454), relative to untreated control cells.
Setting [4] is: HepaRG cells, electroporation with 1,000 nM antisense oligonucleotide, approx. 24 hours, PKK mRNA by RT-PCR (RTS3454), relative to untreated control cells, Table 26 experiment.
[5] abbreviates: Table 28, HepaRG cells, 1,000 nM antisense oligonucleotide, human PKK mRNA.
Setting [6] is: HepaRG cells, 1,000 nM antisense oligonucleotide, Table 29.
Where [7] appears, read: PKK mRNA, HepaRG cells, 1,000 nM antisense oligonucleotide, Table 31.
The mark [8] stands for this setting: Table 30, human PKK mRNA, HepaRG cells, 1,000 nM antisense oligonucleotide.
The mark [9] stands for this setting: Table 27, HepaRG cells, 1,000 nM antisense oligonucleotide, human PKK mRNA.
Where [10] appears, read: Table 20, HepaRG cells, electroporation with 1,000 nM antisense oligonucleotide, approximately 24 hours, PKK mRNA by RT-PCR (RTS3454), relative to untreated control cells.
Setting [11] is: Table 22 experiment, HepaRG cells, electroporation with 1,000 nM antisense oligonucleotide, approx. 24 hours, PKK mRNA by RT-PCR (RTS3454), relative to untreated control cells.
Where [12] appears, read: Table 19, HepaRG cells, electroporation with 1,000 nM antisense oligonucleotide, approximately 24 hours, PKK mRNA by RT-PCR (RTS3454), relative to untreated control cells.

For “548210 (e[5mC]*eA*kA*d[5mC]*dA*dA*dT*d[5mC]*dT*d[5mC]*dT*dG*dG*kT*k[5mC]*eA; antisense) [compound 548210]”, the “% inhibition” value under setting [1] was 55%.
As for “547932 (e[5mC]*eG*kA*dT*dT*dT*dT*d[5mC]*d[5mC]*dA*dT*dA*d[5mC]*kA*kT*eT; antisense) [compound 547932]”, the “% inhibition” value under setting [2] was found to be 33%.
“547794 (antisense eT*e[5mC]*kA*dT*dA*dG*dA*dG*dT*dT*dG*dA*dG*kT*k[5mC]*eA) [compound 547794]”: under setting [3], the “% inhibition” value is 49%.
For “548266 (antisense eT*eT*kG*dG*d[5mC]*d[5mC]*dA*dA*d[5mC]*dT*d[5mC]*dT*dG*kT*kG*eG) [compound 548266]”, under setting [4], the “% inhibition” value turned out to be 44%.
On to “548000 (antisense e[5mC]*e[5mC]*k[5mC]*dT*dT*dG*dT*dG*dT*d[5mC]*d[5mC]*d[5mC]*dA*kT*kA*e[5mC]) [compound 548000]”, for which the “% inhibition” value (HepaRG cells, electroporation with 1,000 nM antisense oligonucleotide, approximately 24 hours, primer probe set RTS3454, relative to untreated control cells, experiment of Table 24) worked out at 54%.
In the case of “548524 (antisense eG*e[5mC]*k[5mC]*d[5mC]*dG*dA*dT*d[5mC]*dA*d[5mC]*d[5mC]*dT*dT*kA*kG*eA) [compound 548524]”, the “% inhibition” value under setting [5] is 45%.
“548511 (antisense eA*eG*k[5mC]*dT*dA*dG*d[5mC]*dT*dG*dA*d[5mC]*d[5mC]*d[5mC]*k[5mC]*kA*eA) [compound 548511]”: under setting [5], the “% inhibition” value is reported as 16%.
Consider “548606 (e[5mC]*eG*kG*dT*dG*dG*dT*dG*dG*dG*dA*dT*dT*kG*kG*eT; antisense) [compound 548606]”, for which, under setting [6], the “% inhibition” value was found to be 41%.
With “547816 (eG*eA*kA*d[5mC]*dT*dT*dG*d[5mC]*dT*dG*dG*dA*dA*kG*kA*eA; antisense) [compound 547816]”, the “% inhibition” value under setting [3] came out at 45%.
Consider “548548 (antisense eG*e[5mC]*kT*dT*dG*dT*dA*dG*dA*dA*dG*dG*dG*kA*kT*eT) [compound 548548]”, for which, under setting [6], the “% inhibition” value came out at 54%.
For “548520 (antisense e[5mC]*e[5mC]*kG*d[5mC]*dT*dT*d[5mC]*d[5mC]*d[5mC]*dT*dG*dA*d[5mC]*kT*kG*eT) [compound 548520]”, under setting [5], the “% inhibition” value is recorded as 43%.
Regarding “548662 (antisense eT*eG*k[5mC]*dT*dT*dA*dA*dA*dA*dG*dT*d[5mC]*dT*k[5mC]*k[5mC]*e[5mC]) [compound 548662]”, the “% inhibition” value under setting [7] is listed as 5%.
Consider “548437 (antisense eT*eA*kT*dA*dT*d[5mC]*dA*d[5mC]*dT*dG*dT*dA*d[5mC]*k[5mC]*kT*eG) [compound 548437]”, for which the “% inhibition” value under setting [8] came to 74%.
“548340 (antisense eG*eA*kT*dG*dA*dT*d[5mC]*d[5mC]*dT*d[5mC]*dA*d[5mC]*dA*kT*kA*e[5mC]) [compound 548340]”: the “% inhibition” value under setting [9] stood at 35%.
Regarding “548615 (antisense eT*eT*kG*dG*dT*dG*dG*d[5mC]*dG*dG*dG*dA*dT*k[5mC]*kG*eG) [compound 548615]”, the “% inhibition” value under setting [7] stood at 10%.
“548458 (eA*e[5mC]*k[5mC]*dT*dA*dT*dA*dA*d[5mC]*dT*dA*dT*dA*kA*k[5mC]*eA; antisense) [compound 548458]”: under setting [8], the “% inhibition” value came out at 0%.
As to “548567 (antisense eA*eG*kA*dT*d[5mC]*d[5mC]*dG*dG*dA*dA*dT*dA*dA*k[5mC]*k[5mC]*eA) [compound 548567]”, under setting [6], the “% inhibition” value was 67%.
Consider “548562 (antisense eA*eG*kA*dT*dG*dA*d[5mC]*d[5mC]*dT*dG*d[5mC]*dA*dG*kA*kT*eG) [compound 548562]”, for which the “% inhibition” value under setting [6] was found to be 50%.
As for “547952 (e[5mC]*eA*kG*dA*dT*dA*dT*dG*dG*dT*dG*dT*dT*kT*kT*e[5mC]; antisense) [compound 547952]”, the “% inhibition” value under setting [2] is on record as 46%.
As to “547900 (eT*eG*kT*dA*d[5mC]*dT*dT*dT*dA*dA*dT*dA*dG*kG*k[5mC]*eA; antisense) [compound 547900]”, the “% inhibition” value is, setting by setting: under setting [10], 93%; under setting [11], 68%.
As for “547865 (antisense eA*eA*kA*dA*dT*dT*dG*dA*d[5mC]*dT*d[5mC]*d[5mC]*dT*k[5mC]*kT*e[5mC]) [compound 547865]”, the “% inhibition” value reads like this: under setting [10], 3%; under setting [11], 61%.
Turning to “548450 (e[5mC]*eT*kA*d[5mC]*d[5mC]*dT*dA*dT*dA*dA*d[5mC]*dT*d[5mC]*kT*kA*eA; antisense) [compound 548450]”, the “% inhibition” value under setting [8] is recorded as 0%.
Turning to “548377 (eG*eT*kG*dT*dG*d[5mC]*dT*dG*dA*dG*dG*dT*dT*kT*kG*e[5mC]; antisense) [compound 548377]”, the “% inhibition” value under setting [9] was 80%.
Consider “548276 (antisense e[5mC]*eA*kG*dA*dG*dT*dG*dT*d[5mC]*dA*dT*d[5mC]*dT*kG*k[5mC]*eG) [compound 548276]”, for which the “% inhibition” value under setting [4] is recorded as 49%.
Regarding “547844 (antisense eG*e[5mC]*kA*d[5mC]*dT*dT*dA*dT*dT*dT*dG*dA*dT*kG*kA*e[5mC]) [compound 547844]”, the “% inhibition” value reads like this: under setting [10], 13%; under setting [11], 76%.
Take “548599 (eT*eG*kG*dG*dT*dT*dG*dG*dA*dG*dG*dA*dG*kT*kG*eG; antisense) [compound 548599]”: under setting [6], the “% inhibition” value turned out to be 19%.
Take “548171 (e[5mC]*eA*kG*dT*dT*dG*d[5mC]*dG*dA*d[5mC]*d[5mC]*dT*d[5mC]*kG*k[5mC]*eA; antisense) [compound 548171]”: the “% inhibition” value under setting [1] is reported as 47%.
On to “548435 (antisense eA*eA*k[5mC]*dA*dA*dT*dA*dT*d[5mC]*dA*d[5mC]*dT*dG*kT*kA*e[5mC]) [compound 548435]”, for which the “% inhibition” value under setting [8] is on record as 19%.
“548364 (antisense eT*eG*kG*d[5mC]*dT*dA*dA*dG*dT*d[5mC]*dA*dG*dG*k[5mC]*k[5mC]*e[5mC]) [compound 548364]”: the “% inhibition” value under setting [9] is 30%.
For “548487 (eT*e[5mC]*k[5mC]*dA*dT*dG*dT*d[5mC]*dA*dG*dA*dG*dT*kT*kG*e[5mC]; antisense) [compound 548487]”, under setting [5], the “% inhibition” value is listed as 71%.
For “548575 (eT*eG*kT*d[5mC]*d[5mC]*dT*dT*dT*dA*dA*dA*dG*dT*kA*kT*e[5mC]; antisense) [compound 548575]”, the “% inhibition” value under setting [6] came to 18%.
As for “548620 (antisense eT*eG*kG*dT*dT*dG*dG*dT*dG*dG*d[5mC]*dG*dG*kG*kA*eT) [compound 548620]”, under setting [7], the “% inhibition” value was found to be 24%.
Turning to “548131 (eA*eA*kT*dT*dT*dG*dA*d[5mC]*dT*dT*dG*dA*dA*k[5mC]*kT*e[5mC]; antisense) [compound 548131]”, the “% inhibition” value under setting [12] came out at 45%.
Regarding “547897 (eA*eT*kA*dG*dG*d[5mC]*dA*dA*dT*dT*dG*dT*dT*k[5mC]*k[5mC]*eG; antisense) [compound 547897]”, the “% inhibition” value under setting [11] worked out at 82%.
For “548538 (antisense eT*eA*kG*dT*dG*dG*d[5mC]*dA*dA*dG*dA*dA*d[5mC]*k[5mC]*kA*e[5mC]) [compound 548538]”, the “% inhibition” value under setting [6] is reported as 0%.
Take “548289 (e[5mC]*eA*kT*dG*dA*dT*dA*d[5mC]*d[5mC]*dA*d[5mC]*dA*d[5mC]*k[5mC]*kA*e[5mC]; antisense) [compound 548289]”: under setting [4], the “% inhibition” value turned out to be 28%.
Take “548680 (antisense eG*e[5mC]*k[5mC]*d[5mC]*d[5mC]*dT*d[5mC]*dT*dT*dA*dA*dA*dT*kA*kG*e[5mC]) [compound 548680]”: the “% inhibition” value under setting [7] is recorded as 9%.
For “548346 (antisense eT*e[5mC]*k[5mC]*d[5mC]*d[5mC]*dA*dA*dT*dA*d[5mC]*dT*dT*dG*k[5mC]*kT*eG) [compound 548346]”, the “% inhibition” value under setting [9] is on record as 35%.
With “547839 (eG*e[5mC]*kT*dT*d[5mC]*dA*dA*dG*dG*dA*dA*dT*dG*kT*k[5mC]*e[5mC]; antisense) [compound 547839]”, under setting [3], the “% inhibition” value was determined as 35%.
Consider “548679 (antisense eT*e[5mC]*kT*d[5mC]*dA*dA*dG*d[5mC]*dA*dG*d[5mC]*d[5mC]*dT*kA*kT*eT) [compound 548679]”, for which the “% inhibition” value under setting [7] is 0%.
For the substance “548253 (antisense eT*eA*k[5mC]*dT*d[5mC]*dG*d[5mC]*d[5mC]*dT*dT*dT*dG*dT*kG*kA*eT) [compound 548253]”, the “% inhibition” value under setting [4] is 8%.
Regarding “548103 (antisense eT*eG*kT*dA*d[5mC]*dT*d[5mC]*dA*dG*d[5mC]*dG*dA*d[5mC]*kT*kT*eT) [compound 548103]”, the “% inhibition” value under setting [12] is reported as 66%.
In the case of “548152 (e[5mC]*eG*kG*dG*d[5mC]*dT*dT*d[5mC]*dA*dG*d[5mC]*d[5mC]*dA*kG*kA*e[5mC]; antisense) [compound 548152]”, the “% inhibition” value under setting [1] was 32%.
Take “548545 (antisense e[5mC]*eT*k[5mC]*dT*dT*d[5mC]*dG*d[5mC]*dA*dT*dG*dG*dA*k[5mC]*kA*e[5mC]) [compound 548545]”: the “% inhibition” value under setting [6] came out at 46%.
